Format in all cases: in vivo
The subject of test [1] is Cowpea Aphid (Aphis craccivora). The experiment in a line: Cowpea aphid test, colonized potted cowpea plants sprayed. Conditions: spray, population reduction recorded after 24, 72 and 120 hours, read-out: mortality in comparison with untreated controls. The method, then:
III. Cowpea Aphid (Aphis craccivora)
(§1) The active compounds were formulated in 50:50 acetone: water and 100 ppm Kinetic® surfactant.
Potted cowpea plants colonized with 100-150 aphids of various stages were sprayed after the pest population has been recorded. Population reduction was recorded after 24, 72, and 120 hours.

Test [2] relates to Green Peach Aphid (Myzus persicae). The experiment in a line: Green peach aphid test, leaves of infested pepper plants dipped. Conditions: 120 h, dip, aphid mortality determined after 5 days, read-out: mortality in comparison with untreated controls. The method, then:
II. Green Peach Aphid (Myzus persicae)
as §1
Pepper plants in the 2nd leaf-pair stage (variety ‘California Wonder’) are infested with approximately 40 laboratory-reared aphids by placing infested leaf sections on top of the test plants. The leaf sections are removed after 24 hours. The leaves of the intact plants are dipped into gradient solutions of the test compound. Aphid mortality on the treated plants, relative to mortality on check plants, is determined after 5 days.

In a further test the test system is Silverleaf Whitefly. The experiment in a line: Silverleaf whitefly test, cotton cotyledons dipped, adults introduced. Conditions: Bemisia argentifolii, 72 h, cotton plants, dip, mortality assessed 3 days after treatment, read-out: mortality in comparison with untreated controls. The method, then:
as §1
Selected cotton plants were grown to the cotyledon state (one plant per pot). The cotyledons were dipped into the test solution to provide complete coverage of the foliage and placed in a well-vented area to dry. Each pot with treated seedling was placed in a plastic cup and 10 to 12 whitefly adults (approximately 3-5 day old) were introduced. The insects were colleted using an aspirator and a 0.6 cm, non-toxic Tygon® tubing (R-3603) connected to a barrier pipette tip. The tip, containing the collected insects, was then gently inserted into the soil containing the treated plant, allowing insects to crawl out of the tip to reach the foliage for feeding. The cups were covered with a re-usable screened lid (150 micron mesh polyester screen PeCap from Tetko Inc). Test plants were maintained in the holding room at about 25 °C and 20-40% relative humidity for 3 days avoiding direct exposure to the fluorescent light (24 hour photoperiod) to prevent trapping of heat inside the cup. Mortality was assessed 3 days after treatment of the plants.

Test [3] concerns Cotton Aphid (Aphis gossypii). The experiment in a line: Cotton aphid test, cotyledons of infested cotton plants dipped. Conditions: 120 h, dip, aphid mortality determined after 5 days, read-out: mortality in comparison with untreated controls. As for the experimental part:
I. Cotton Aphid (Aphis gossypii)
as §1
Cotton plants in the cotyledon stage (variety ‘Delta Pine’) are infested with approximately 100 laboratory-reared aphids by placing infested leaf sections on top of the test plants. The leaf sections are removed after 24 hours. The cotyledons of the intact plants are dipped into gradient solutions of the test compound. Aphid mortality on the treated plants, relative to mortality on check plants, is determined after 5 days.

Bounds are passed on as bounds.

The source of these data is patent US20110118116A1, “Azolin-2-ylamino Compounds for Combating Animal Pests” (priority 2008, published 2011).

As to `Cc1cccc(C#CCC(NC(=S)NCCO)c2cccc(C)c2C)c1` (stereo not drawn) [Example 2, 1-[1-(2,3-dimethyl-phenyl)-4-m-tolyl-but-3-ynyl]-3-(2-hydroxy-ethyl)-thiourea], the mortality at 300 ppm in test [1] was above 70%.

Turning to `Cc1cccc(C#CCC(NC2=NCCS2)c2cccc(C)c2C)c1` (stereo not drawn) [Example 13, (4,5-dihydro-thiazol-2-yl)-[1-(2,3-dimethyl-phenyl)-4-m-tolyl-but-3-ynyl]-amine], the mortality at 300 ppm (in test [2]; in the test on Silverleaf Whitefly; in test [3]; in test [1]) was above 70% throughout.

With `C#CCC(NC1=NCCS1)c1cccc(C)c1C` (stereo not drawn) [Example 14, (4,5-dihydro-thiazol-2-yl)-[1-(2,3-dimethyl-phenyl)-but-3-ynyl]-amine], in test [1], the mortality at 300 ppm is above 70%.

In the case of `Cc1cccc(C(CC#Cc2cccc(Cl)c2)NC2=NCCS2)c1C` (stereo not drawn) [Example 15, [4-(3-chloro-phenyl)-1-(2,3-dimethyl-phenyl)-but-3-ynyl]-(4,5-dihydro-thiazol-2-yl)-amine], the mortality at 300 ppm in test [2], in test [3] and in test [1] was above 70% each time.

As usually defined, the mortality is the share of the test organisms that died.
